Counter-ions that a name gives are not always drawn.
Assays:
α2β1 integrin = molecular target: T1, α2β1 integrin (Homo sapiens, UniProt P17301); experiment: CHO-α2β1 cell adhesion on type I collagen; assay type: cell-based; details: CHO cells expressing wild type α2 integrin on collagen type I coated wells, 2 h
T1 construct: expressed in transfected cells; host or cells: CHO cell clone
T1 sequence (P17301 30-1181): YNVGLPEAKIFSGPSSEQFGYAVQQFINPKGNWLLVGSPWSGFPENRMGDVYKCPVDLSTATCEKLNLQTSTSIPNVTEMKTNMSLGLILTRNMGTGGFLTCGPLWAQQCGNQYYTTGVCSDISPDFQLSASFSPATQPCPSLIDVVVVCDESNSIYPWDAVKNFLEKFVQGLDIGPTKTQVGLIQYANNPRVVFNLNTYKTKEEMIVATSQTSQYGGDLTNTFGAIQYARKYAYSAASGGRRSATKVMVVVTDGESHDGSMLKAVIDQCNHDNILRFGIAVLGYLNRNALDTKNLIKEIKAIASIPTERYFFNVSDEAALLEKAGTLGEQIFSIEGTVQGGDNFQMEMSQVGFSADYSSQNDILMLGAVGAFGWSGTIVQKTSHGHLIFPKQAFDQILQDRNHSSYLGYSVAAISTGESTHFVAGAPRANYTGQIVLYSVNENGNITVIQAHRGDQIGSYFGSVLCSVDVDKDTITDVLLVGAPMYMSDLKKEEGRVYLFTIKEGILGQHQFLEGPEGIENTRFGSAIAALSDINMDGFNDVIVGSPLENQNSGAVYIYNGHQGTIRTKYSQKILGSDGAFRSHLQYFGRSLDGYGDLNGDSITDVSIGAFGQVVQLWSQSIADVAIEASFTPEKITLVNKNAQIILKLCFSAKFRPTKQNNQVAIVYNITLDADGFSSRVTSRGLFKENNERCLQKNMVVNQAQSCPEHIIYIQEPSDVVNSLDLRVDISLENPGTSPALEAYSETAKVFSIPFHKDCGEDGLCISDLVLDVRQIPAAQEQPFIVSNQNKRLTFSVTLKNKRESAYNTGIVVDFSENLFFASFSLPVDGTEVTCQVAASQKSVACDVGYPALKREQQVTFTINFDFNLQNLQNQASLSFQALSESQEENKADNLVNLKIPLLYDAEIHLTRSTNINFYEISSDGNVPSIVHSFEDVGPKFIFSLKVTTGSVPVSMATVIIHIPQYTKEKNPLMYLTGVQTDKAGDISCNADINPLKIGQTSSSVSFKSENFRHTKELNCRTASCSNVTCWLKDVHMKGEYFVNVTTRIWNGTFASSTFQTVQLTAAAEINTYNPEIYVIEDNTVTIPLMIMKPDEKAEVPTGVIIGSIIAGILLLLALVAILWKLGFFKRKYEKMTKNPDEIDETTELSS
Description: Chinese Hamster Ovary (CHO) cell clone expressing wild type α2 integrin was used in cell adhesion assay. Cells were suspended in serum free medium containing 0.1 mg/ml cycloheximide (Sigma) and the compounds were preincubated with the cells prior to transfer to the wells. Cells (150000/well) were allowed to attach on collagen type I coated wells (in the presence and absence of inhibitor compounds) for 2 h at +37° C. and after that non-adherent cells were removed. Fresh serum free medium was added and the living cells were detected using a cell viability kit (Roche) according to the manufacturer's protocol.

[1] = tested on: Prostate cancer cells (PC-3); experiment: Cell invasion assay: invasion of PC-3 cells through Matrigel; details: Homo sapiens, PC-3, 72 h, read-out: EC50 in cell invasion (μM)
Description: Prostate cancer cells (PC-3) expressing α2β1 endogenously were used to test the in vitro anticancer potential of the inhibitors of the present invention.
Inserts were stored at −20° C. Before the experiments inserts were allowed to adjust to the room temperature. 500 μl of serum free media (Ham's F12K medium, 2 mM L-glutamine, 1.5 g/l sodium bicarbonate) was added into the inserts and allowed to rehydrate at 37° C. in cell incubator for two hours. The remaining media was aspirated. PC-3 cells were detached, pelleted and suspended into serum free media (50000 cells/500 μl). 300 μl of cell suspension was added into the insert in the absence (control) or presence of the inhibitor according to the present invention. Inserts were placed on the 24-well plates; each well containing 700 μl of cell culture media with 3% of fetal bovine serum as chemo-attractant. Cells were allowed to invade for 72 hours at 37° C. in cell incubator. Inserts were washed with 700 μl PBS, and fixed with 4% paraformaldehyde for 10 minutes. Paraformaldehyde was aspirated and cells were washed with 700 μl of PBS and inserts were stained by incubation with hematoxylin for 1 minute. The stain was removed by washing the inserts with 700 μl of PBS. Inserts were allowed to dry. Fixed invaded cells were calculated under the microscope. Invasion % was calculated as a comparison to the control.

[2] = tested on: platelet aggregation in whole blood; details: PFA-100, collagen plus Epinephrin membrane, compared to control (DMSO), FIG. 1
Description: The PFA-100 is a high shear-inducing device that simulates primary haemostasis after injury of a small vessel. The system comprises a test-cartridge containing a biologically active membrane coated with collagen plus Epinephrin. An anticoaculated whole blood sample was run through a capillary under a constant vacuum. […] The time required to obtain full occlusion of the aperture was designated as the “closure time”. Each compound was added to the whole blood sample and the closure time was measured with PFA-100.
Blood was collected from a donor via venipuncture into evacuated blood collection tubes containing 3.2% buffered sodium sitrate as anticoagulant. Blood was aliquoted into 15 mL tubes and treated with either inhibitory compounds or controls (DMSO). Samples were kept at room temperature with rotation for 10 minutes and after that the closure time of the blood was measured.
Acquisitions resulting in a closure time exceeding the range of measurement of the instrument (>300 seconds) were assigned a value of 300 seconds. Mean and standard deviations were calculated for each treatment. Student's t-test was applied to the resultant data.

| inhibition at 50 µM (α2β1 integrin) [%] | SMILES | further results |
| --- | --- | --- |
| 11 | COCCN(c1ccc(N(C)C)cc1)S(=O)(=O)c1cccc(-c2ccc(F)cc2)c1 [Compound 353, 4′-fluoro-biphenyl-3-sulfonic acid (4-dimethylamino-phenyl)-(2-methoxy-ethyl)-amide] |  |
| 78 | CN(C)CCN(c1ccc(N(C)C)cc1)S(=O)(=O)c1cccc(-c2ccc(F)cc2)c1 [Compound 354, 4′-fluoro-biphenyl-3-sulfonic acid (2-dimethylamino-ethyl)-(4-dimethylamino-phenyl)-amide] |  |
| 18 | CN(C)c1ccc(N(CCN2CCOCC2)S(=O)(=O)c2cccc(-c3ccc(F)cc3)c2)cc1 [Compound 355, 4′-fluoro-biphenyl-3-sulfonic acid (4-dimethylamino-phenyl)-(2-morpholin-4-yl-ethyl)-amide] |  |
| 71 | CN(C)c1ccc(N(CCn2ccnc2)S(=O)(=O)c2cccc(-c3ccc(F)cc3)c2)cc1 [Compound 358, 4′-fluoro-biphenyl-3-sulfonic acid (4-dimethylamino-phenyl)-(2-imidazol-1-yl-ethyl)-amide] |  |
| 42 | CN(C)c1ccc(N(CCO)S(=O)(=O)c2cccc(-c3ccc(F)cc3)c2)cc1 [Compound 359, 4′-fluoro-biphenyl-3-sulfonic acid (4-dimethylamino-phenyl)-(2-hydroxy-ethyl)-amide] |  |
| 22 | O=S(=O)(Nc1ccc(-c2cnco2)cc1)c1cccc(-c2ccc(F)cc2)c1 [Compound 378, 4′-fluoro-biphenyl-3-sulfonic acid (4-(1,3-oxazol-5-yl)-phenyl)-amide] |  |
| 26 | CC(=O)c1ccc(NS(=O)(=O)c2cccc(-c3ccc(F)cc3)c2)cc1 [Compound 383, 4′-fluoro-biphenyl-3-sulfonic acid (4-acetyl-phenyl)-amide] |  |
| 56 | O=S(=O)(Nc1cccc(-c2ccc(F)cc2)c1)c1ccc(Cl)cc1Cl [Compound 403, 2,4-cichlorophenylsulfonic acid (3-(4-fluorophenyl)phenyl)-amide] |  |
| 53 | CN(c1ccc(NC(=O)N2CCNC2=O)cc1)S(=O)(=O)c1cccc(-c2ccc(F)cc2)c1 [Compound 430, 2-oxo-imidazolidine-1-carboxylic acid {4-[(4′-fluoro-bi-phenyl-3-sulfonyl)-methyl-amino]-phenyl)-amide] | EC50 [1]: 12 µM |
| 72 | O=C(c1ccccc1)c1cccc(NS(=O)(=O)c2cccc(-c3ccc(F)cc3)c2)c1 [Compound 432, 4′-fluoro-biphenyl-3-sulfonic acid (3-benzoyl-phenyl)-amide] | EC50 [1]: 1 µM |
|  | O=C(c1ccccc1)c1ccc(NS(=O)(=O)c2cccc(-c3ccc(F)cc3)c2)cc1 [Compound 434, 4′-fluoro-biphenyl-3-sulfonic acid (4-benzoyl-phenyl)-amide sodium salt] | closure time of the blood [2]: increase the closure time; inhibition at 50 µM (α2β1 integrin; CHO): 78% |
| 59 | O=[N+]([O-])c1ccc(NS(=O)(=O)c2cccc(-c3ccc(F)cc3)c2)cc1 [Compound 440, 4′-fluoro-biphenyl-3-sulfonic acid (4-nitro-phenyl)-amide] | EC50 [1]: 8.3 µM |
| 21 | Cn1cccc1C(=O)Nc1ccc(NS(=O)(=O)c2cccc(-c3ccc(F)cc3)c2)cc1 [Compound 442, 1-methyl-1H-pyrrole-2-carboxylic acid [4-(4′-fluoro-bi-phenyl-3-sulfonylamino)-phenyl]-amide] |  |
| 58 | N#Cc1ccc(NS(=O)(=O)c2cccc(-c3ccc(F)cc3)c2)cc1 [Compound 448, 4′-fluoro-biphenyl-3-sulfonic acid (4-cyano-phenyl)-amide] | EC50 [1]: 27 µM |
| 13 | Cc1cc(NC(=O)c2ccc(NS(=O)(=O)c3cccc(-c4ccc(F)cc4)c3)cc2)no1 [Compound 456, 4-(4′-fluoro-biphenyl-3-sulfonylamino)-N-(5-methyl-isoxazol-3-yl)-benzamide] |  |
| 66 | O=C(c1ccc(F)cc1)c1ccc(NS(=O)(=O)c2cccc(-c3ccc(F)cc3)c2)cc1 [Compound 458, 4′-fluoro-biphenyl-3-sulfonic acid [4-((4-fluorophenyl)-4-carbonyl)-phenyl]-amide] |  |

| SMILES | inhibition at 50 µM (α2β1 integrin) [%] | further results |
| --- | --- | --- |
| O=C(c1ccccc1)c1ccc(NS(=O)(=O)c2cccc(-c3ccc(F)cc3)c2)cc1 [Compound 384, 4′-fluoro-biphenyl-3-sulfonic acid (4-benzoyl-phenyl)-amide] | 65 |  |
